Data: US20080274121A1, “Inhibition of Angiogenesis by Mithramycin” (priority 2007, published 2008)
“Also recorded” adds a separate entry of the source.

Legend:
[1] = tested on: BxPC3 cells; experiment: BxPC3 subcutaneous xenograft, tumor volume and body weight; assay type: in vivo, nude mice
Text: FIG. 10. Dose-dependent antitumor effects of BVZ and MIT in xenograft models of human pancreatic cancer. […] C and D, the control mice and mice that received (C) BVZ and (D) MIT were weighed at the time of experiment termination, and the weights were expressed as the mean±SD.
FIG. 11. Synergistic antitumor effects of treatment with BVZ and MIT in xenograft models of human pancreatic cancer. […] C, representative tumor sizes in each group of BxPC3 model mice.
To determine whether this takes place, we treated pancreatic cancer in nude mice with BVZ, MIT, or a combination of the two (B+M). Specifically, we first performed dose-response experiments. We injected BxPC3 cells subcutaneously into nude mice.
Next, we performed experiments using both BxPC3 and PANC-1 tumor cell models in which we administered PBS, BVZ (25 μg), MIT (0.10 mg/kg), or B+M to a group of nude mice.

[2] = tested on: PANC-1 cells; experiment: Viable cell count in vitro, PANC-1; assay type: cell-based, human; conditions: 100 μg/ml BVZ
Experimental: FIG. 14. Effects of treatment with BVZ and MIT on the growth of and gene expression in human pancreatic cancer cells in vitro. (A) BxPC3 and (B) PANC-1 cells were incubated for 1 to 5 days in a medium alone or a medium containing 100 μg/ml BVZ. The viable cells were counted every 24 hours. C, PANC-1 cells were incubated for 6 to 48 hours in a medium alone or a medium containing 100 μg/ml BVZ. Total protein lysates were harvested from the cell cultures, and the level of Sp1, EGFR, and VEGF protein expression was determined using Western blot analysis. Equal protein-sample loading was monitored by probing the same membrane filter with an anti-glyceraldehyde-3-phosphate dehydrogenase antibody (GAPDH). D and E, PANC-1 cells were treated with MIT at concentrations ranging from 0.1 to 1.2 μM for 24 and 48 hours. (D) Cytotoxicity was assessed using the MTT assay, and (E) the level of gene expression was determined using Western blot analysis. NS, nonspecific.
Effects of treatment with BVZ and MIT on the growth of and gene expression in human pancreatic cancer cells. To further determine whether treatment with BVZ directly impacts gene expression in pancreatic cancer cells, we incubated PANC-1 and BxPC3 cells in a medium alone or a medium containing 100 μg/ml BVZ for 6 to 48 hours.

[3] = tested on: Sp1, VEGF, EGFR, PDGFA, CD31 (MVD); experiment: Gene expression and MVD in H727 tumor tissues; assay type: in vivo, nude mice
Experimental: FIG. 20. Upregulation of Sp1 and VEGF expression by treatment with BVZ and its reversal by treatment with MIT. The tumor tissues described in FIG. 4 were collected and processed as described in Materials and Methods. A. Frozen sections made from the tumors were used CD31 staining and MVD assessment. Representative photos of the stains are shown. B. Total protein lysates were harvested from tumor tissues, and the expression levels of Sp1, VEGF, EGFR and PDGFA protein were determined using Western blot analyses. Equal protein-sample loading was monitored by probing the same membrane filter with an anti-GAPDH antibody. C. The expression levels of Sp1, VEGF, EGFR and PDGFA were further determined by calculating the ratios between those genes and GAPDH.
Western blot analysis. Whole-cell lysates were prepared from human LGNET cell lines and tissues (21). Standard Western blotting was performed using polyclonal rabbit antibodies against human and mouse Sp1, VEGF, EGFR and PDGFA (Santa Cruz Biotechnology, Santa Cruz, Calif.) and the anti-rabbit IgG antibody, a horseradish peroxidase-linked F(ab′)2 fragment obtained from a donkey (Amersham, Arlington Heights, Ill.). Equal protein-sample loading was monitored by probing the same membrane filter with an antibody against glyceraldehyde-3-phosphate dehydrogenase (GAPDH) (21). The probe proteins were detected using the Amersham enhanced chemiluminescence system according to the manufacturer's instructions.
Immunohistochemical analysis and quantification of tumor MVD. For CD31 staining, frozen tissue sections (5 μm thick) were fixed in acetone. Endogenous peroxidase in the specimens was blocked using 3% hydrogen peroxide in phosphate-buffered saline (PBS) for 12 minutes. […] For quantification of tumor MVD, vessels on each section were counted in five high-power fields (magnification, ×200 [×20 objective and ×10 ocular]) as described previously (40). […]

Q: Which results are given for bevacizumab [BVZ]?
A: antitumor activity at low dose ([1]; BVZ 25 μg, MIT 0.10 mg/kg, or B+M): slight antitumor effects; also recorded: marginal antitumor activity; antitumor activity, dose-response ([1]; BVZ 25, 50, 100 μg, MIT 0.1, 0.2, 0.4 mg/kg, i.p. twice a week): suppressed human pancreatic cancer growth; body weight ([1]; BVZ alone, 25-100 μg): no discernable effect on body weight; cell growth in vitro [2]: did not affect the growth; expression of PDGFA, VEGF, and EGFR in H727 tumor tissue ([3]; combination study (FIGS. 20B and 20C), Western blot): upregulated the expression of other proangiogenic molecules; Sp1 expression in H727 tumor tissue ([3]; combination study: PBS, BVZ, MIT, or B+M (FIG. 20)): increased expression of Sp1; MVD ([3]; combination study: low-dose BVZ or MIT alone (FIG. 20)): did not significantly reduce MVD
